# Results as given in US12678403B2, “Pharmaceutical composition for preventing or treating obesity or non-alcoholic fatty liver containing Polygalin C as active ingredient” (UNIVERSITY-INDUSTRY COOPERATION GROUP OF KYUNG HEE …, priority 2021, dated 2026).
# Experiments:
# FAS [1] = experiment: Real-time PCR, FAS RNA in 3T3-L1 adipocytes; type: cell-based, mouse; conditions: vs fully differentiated adipocytes
# Experimental: (§1) 3T3-L1 cells were inoculated into a 6-well plate in a density of 8×10^4 cells/well, and the medium was replaced until the confluence is satisfied. For differentiation, cells were incubated in differentiation media (0.5 mM IBMX, 0.5 μM dexamethasone, and 1 μg/mL insulin). The medium was then replaced with a maintenance culture including 1 μg/mL insulin and PC (0-50 μM) once every 2 days.
# (§2) Cells were treated with Ribo-Ex to extract RNA using GeneAll Hybrid-R RNA purification kit (GeneAll, Seoul, Korea). RNA was quantified using NanoDrop (Thermo Fisher Scientific). Amplification of complementary DNA was performed at 45° C. for 60 minutes and 95° C. for 15 minutes using a Maxime RT premix (iNtRON Biotechnology, South Korea). Real-time quantitative PCR was performed using the Universal SYBR Green Master Mix (Applied Biosystems, Foster City, CA, USA). Real-time PCR was performed on Applied Biosystems StepOne System (Applied Biosystems). In this study, relative target gene expression was quantified relatively to gene expression of glyceraldehyde 3-phosphate dehydrogenase to determine mRNA expression levels.
# (§3) In order to determine whether the PC inhibits the adipogenic factors, the degree of expression of the adipogenic factors was examined through Western blotting and real-time PCR. FAS and SREBP1 play an important role in adipogenesis, protein expression levels of which were investigated. […]
# 3T3-L1 cells [2] = experiment: MTT assay, cytotoxicity of PC in 3T3-L1 cells; type: cell-based, mouse; conditions: 0-100 μM PC, 48 hours
# Experimental: 3T3-L1 preadipocytes were inoculated into a 96-well cell culture plate by 1×10^4 cells/well and incubated overnight. The medium was then replaced with DMEM including different concentrations of PC (0, 5, 10, 25, 50, 75, and 100 μM) for 48 hours.
# (§4) After PC treatment, cells were incubated with MTT solution (0.5 mg/ml dissolved in PBS) for 2 hours. After incubation, the medium in each well was removed, and dimethyl sulfoxide was added to dissolve the precipitated formazan. When formazan was completely dissolved, the absorbance was measured at 540 nm using a microplate reader (Bio-Rad) to determine cell viability.
# In order to identify cytotoxicity of PC in 3T3-L1 cells, various concentrations of PC (0, 5, 10, 25, 50, 75, and 100 μM) were treated for 48 hours, and then cell viability was determined using MTT assay.
# C/EBPβ = experiment: Real-time PCR, C/EBPβ mRNA in 3T3-L1 adipocytes; type: cell-based, mouse; conditions: vs adipocytes
# Experimental: as §1, §2
# (§5) In order to additionally identify expression of other adipose tissue generation markers such as C/EBPβ and C/EBPδ, mRNA levels of these markers were examined.
# SREBP1c [3] = experiment: Real-time PCR, SREBP1c RNA in 3T3-L1 adipocytes; type: cell-based, mouse; conditions: vs fully differentiated adipocytes
# Experimental: as §1, §2, §3
# C/EBPα [4] = experiment: Real-time PCR, C/EBPα mRNA in 3T3-L1 adipocytes; type: cell-based, mouse; conditions: vs fully differentiated adipocytes
# Experimental: as §1, §2
# (§6) To investigate how PC inhibits adipose tissue generation in 3T3-L1 cells, investigation was performed on protein expression levels of key adipose tissue generation markers. C/EBPα and PPARγ are well-known major transcription factors in adipose tissue generation. […]
# PPARγ [5] = experiment: Real-time PCR, PPARγ mRNA in 3T3-L1 adipocytes; type: cell-based, mouse; conditions: vs fully differentiated adipocytes
# Experimental: as §1, §2, §6
# Akt = experiment: Western blotting, activated Akt in MDI-induced adipocytes; type: cell-based, mouse
# Experimental: as §1
# (§7) Cell lysis buffer (Cell Signaling Technology) was used to lyse cells. The reagent for Bio-Rad protein assay was used to measure protein concentrations for Bradford assay. Each sample was separated by sodium dodecyl sulfate polyacrylamide gel electrophoresis using 8% acrylamide gel and then electrotransferred to a nitrocellulose membrane. The membrane was blocked with 3% bovine serum albumin (BSA) in Tris buffered saline/Tween 20 (TBS-T) at 4° C. for 1 hour and incubated overnight at 4° C. with COX-2, C/EBPα, PPARγ, SREBP1c, FAS, p-ACC, t-ACC, p-AMPK, t-AMPK (1:2000), and β-actin (1:10,000) antibodies. The membrane was extensively washed with TBS-T at 3 or more times for 30 minutes and incubated with goat anti-rabbit IgG-horseradish peroxidase (HRP) and goat anti-mouse IgG-HRP (1:10,000 all in TBS-T) secondary antibodies for 1 hour.
# (§8) Next, MAPK and Akt signaling in adipocytes in the presence of PC were investigated by Western Blotting.
# ACC1 = experiment: Western blotting, ACC1 in NEFA-induced fatty liver HepG2 cells; type: cell-based, human; conditions: dose-dependently, vs NEFA-induced fatty liver cells
# Experimental: (§9) HepG2 cells were inoculated into a 6-well plate in a density of 3×10^5 cells/well and incubated for one day. Then, for fatty liver induction, an FBS-free RPMI medium supplemented with 1% bovine serum albumin (BSA) and NEFA (0.66 mM oleic acid and 0.33 mM palmitic acid) was treated, followed by incubation for 24 hours. When treated with PC (0-50 μM), fatty liver induction medium was treated together for incubation for 24 hours.
# as §7
# (§10) Due to treatment of free fatty acids such as NEFA, fatty liver is induced by fat accumulation. […]
# HepG2 cells [6] = experiment: MTT assay, cytotoxicity of PC and NEFA in HepG2 cells; type: cell-based, human; conditions: 0-100 μM PC, 24 hours
# Experimental: (§11) HepG2 hepatocytes were inoculated into a 96-well cell culture plate by 1×10^4 cells/well and incubated overnight. Then, for 24 hours, they were replaced with fatty liver induction media including different concentrations of PC (0, 5, 10, 25, 50, and 100 μM).
# as §4
# In order to identify cytotoxicity of PC and NEFA in HepG2 cells, various concentrations of PC (0, 5, 10, 25, 50, and 100 μM) or NEFA (0, 0.5, 1, and 2 mM) were treated for 24 hours, and then MTT assay was used to determine cell viability.
# FAS [7] = experiment: Western blotting, FAS in NEFA-induced fatty liver HepG2 cells; type: cell-based, human; conditions: dose-dependently, vs NEFA-induced fatty liver cells
# Experimental: as §9, §7, §10
# SREBP1c [8] = experiment: Western blotting, SREBP1c protein in 3T3-L1 adipocytes; type: cell-based, mouse; conditions: dose-dependently, vs fully differentiated adipocytes
# Experimental: as §1
# as §7, with “hour. […]” for “hour.”
# HepG2 cells [9] = experiment: MTT assay, cell viability in NEFA-treated fatty liver-induced HepG2 cell model; type: cell-based, human; conditions: 1 mM NEFA with 50 µM PC, 24 hours
# Experimental: as §9, §11, §4
# To determine the preventive and therapeutic effects of PC in fatty liver-induced cell models, treatment of 1 mM NEFA as well as various concentrations of PC (0, 5, 10, 25, 50 μM) were performed for 24 hours, and then MTT assay was used to determine cell viability.
# C/EBPα [10] = experiment: Western blotting, C/EBPα protein in MDI-induced 3T3-L1 adipocytes; type: cell-based, mouse; conditions: vs MDI-induced group
# Experimental: as §1, §7
# (§12) To investigate how PC inhibits adipose tissue generation in 3T3-L1 cells, investigation was performed on protein expression levels of key adipose tissue generation markers. […]
# HepG2 cells [11] = experiment: Oil Red O staining, fat accumulation in fatty liver-induced HepG2 cells; type: cell-based, human; conditions: PC 0, 25, 50 μM, vs cells solely treated with NEFA
# Experimental: as §9
# (§13) The treated cells were washed with PBS and fixed with 10% formalin for 1 hour. The cells were then washed with 60% isopropanol and dried completely. A 60% Oil Red O working solution diluted in distilled water (DW) was added to the cells. In the case of hepatocytes, in order to observe the morphology of the cells, they were additionally treated with hematoxylin for 1 minute for staining. The stained cells were washed with DW 3 times and photographed using the Olympus IX71 microscope (Olympus, Tokyo, Japan). To quantify lipid accumulation, stained cells were dissolved in 100% isopropanol, and measurement was performed at 490 nm with a microplate reader (Bio-Rad).
# To investigate whether PC has an inhibitory effect on fat accumulation, cells were treated in the presence and absence of PC at various concentrations (0, 25, and 50 μM), using Oil red O staining. […] Thus, PC reduced accumulation of lipid in fatty liver-induced HepG2 cells.
# COX-2 = experiment: Western blotting, COX-2 in NEFA-induced fatty liver HepG2 cells; type: cell-based, human; conditions: NEFA-treated HepG2 cells
# Experimental: as §9, §7
# It is known that if the symptoms persist in the fatty liver stage, it causes an inflammatory reaction to develop steatohepatitis. […]
# SREBP1c [12] = experiment: Immunofluorescence analysis, SREBP1c in MDI-induced adipocytes; type: cell-based, mouse
# Experimental: The cells were treated with or without PC in a 4-well confocal dish. After treatment, the cells were fixed with 10% formalin for 10 minutes, treated with 0.2% Triton X diluted in PBS for 20 minutes, washed with PBS 3 times, and blocked with 5% BSA dissolved in PBS for 1 hour. Next, cells were incubated overnight in the presence of anti-SREBP1 antibodies (1:500 in PBS) at 4° C., followed by incubation in the presence of Alexa Fluor-555 antibody for 1 hour at room temperature. The cell nucleus was stained with 4,6-diamidino-2-phenylindole (DAPI: Sigma-Aldrich) at room temperature for 3 minutes. DAPI-stained cells were washed with PBS for 30 minutes, and fluorescence was observed using CELENA™ S Digital Imaging System (Logos Biosystems, Inc.).
# In order to determine whether the PC inhibits the adipogenic factors, the degree of expression of the adipogenic factors was examined through Western blotting and real-time PCR. FAS and SREBP1 play an important role in adipogenesis, protein expression levels of which were investigated. […] In addition, according to FIGS. 3B and 3C, the RNA level was reduced compared to fully differentiated adipocytes.
# PPARγ [13] = experiment: Western blotting, PPARγ protein in MDI-induced 3T3-L1 adipocytes; type: cell-based, mouse; conditions: vs MDI-induced group
# Experimental: as §1, §7, §12
# MAPK kinase = experiment: Western blotting, activated MAPK kinase in MDI-induced adipocytes; type: cell-based, mouse; conditions: MDI-induced adipocytes (ERK, JNK, p38)
# Experimental: as §1, §7, §8
# AMPK = experiment: Western blotting, AMPK phosphorylation in 3T3-L1 adipocytes; type: cell-based, mouse
# Experimental: as §1, §7
# (§14) The MAPK/Akt and AMPK/ACC signaling pathways are involved in the general steps of adipose tissue generation. […]
# ACC = experiment: Western blotting, ACC phosphorylation in 3T3-L1 adipocytes; type: cell-based, mouse
# Experimental: as §1, §7, §14
# 3T3-L1 cells [14] = experiment: Oil Red O staining, adipocyte differentiation / lipid accumulation in 3T3-L1 preadipocytes; type: cell-based, mouse; conditions: 3T3-L1 cells differentiated with PC 0, 25, 50 μM; vs fully differentiated adipocytes
# Experimental: as §1, §13
# To investigate whether PC has an inhibitory effect on adipose tissue differentiation, cells were differentiated in the presence and absence of PC at various concentrations (0, 25, and 50 μM), and then Oil red O staining was used. […] Thus, PC reduced accumulation of lipids in 3T3-L1 cells during adipose tissue generation differentiation.
# C/EBPδ = experiment: Real-time PCR, C/EBPδ mRNA in 3T3-L1 adipocytes; type: cell-based, mouse; conditions: vs adipocytes
# Experimental: as §1, §2, §5
# FAS [15] = experiment: Western blotting, FAS protein in 3T3-L1 adipocytes; type: cell-based, mouse; conditions: dose-dependently, vs fully differentiated adipocytes
# Experimental: as §1
# as §7, with “hour. […]” for “hour.”
# [16] = PC treatment, 3T3-L1 adipocytes
# [17] = vs fully differentiated adipocytes
substance,measurement,setting,value
Polygalin C [PC],RNA level of FAS,FAS [1],reduced
same,"concentration with non-toxic effect (cell viability, MTT)",3T3-L1 cells [2],up to 50 μM
same,mRNA level of C/EBPβ,C/EBPβ,decreased concentration-dependently
same,RNA level of SREBP1c,SREBP1c [3],reduced
same,mRNA expression level of C/EBPα,C/EBPα [4],reduced
same,mRNA expression level of PPARγ,PPARγ [5],reduced
same,expression level of activated Akt,Akt,significantly reduced dose-dependently
same,expression level of ACC1,ACC1,significantly reduced
same,"concentration with non-toxic effect (cell viability, MTT)",HepG2 cells [6],up to 100 μM
same,expression level of FAS,FAS [7],significantly reduced
same,protein expression level of SREBP1c,SREBP1c [8],significantly reduced
same,cell viability (MTT) in NEFA-treated cells,HepG2 cells [9],cell viability was restored
same,relative protein level of C/EBPα,C/EBPα [10],decreased dose-dependently
same,production of lipid droplets (Oil red O),HepG2 cells [11],dose-dependently inhibited
same,expression of COX-2 induced by NEFA treatment,COX-2,reduced concentration-dependently
same,MDI-induced SREBP1c expression (immunofluorescence),SREBP1c [12],significant relieving effect
same,relative protein level of PPARγ,PPARγ [13],decreased dose-dependently
same,expression level of activated MAPK kinase,MAPK kinase,significantly reduced dose-dependently
same,total AMPK expression level,AMPK; [16],unchanged
same,phosphorylation of AMPK,AMPK; [17],significantly increased
same,total ACC expression level,ACC; [16],unchanged
same,phosphorylation of ACC,ACC; [17],significantly increased
same,production of lipid droplets (Oil red O),3T3-L1 cells [14],dose-dependently inhibited
same,mRNA level of C/EBPδ,C/EBPδ,decreased concentration-dependently
same,protein expression level of FAS,FAS [15],significantly reduced
